# Laboratory results from ChEMBL document CHEMBL5665443, “Enzyme Inhibitor Single Concentration assay results for EUbOPEN Chemogenomics Library” (2024).
# Key:
# Settings in all cases: Hit No
# [1] = molecular target: T1, Endonuclease 8-like 2 (Homo sapiens) (UniProt Q969S2);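 also: fluorescence at 594 nm reports NEIL2 cutting and release of a quenched double-stranded DNA oligo substrate, reduced signal read as inhibition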
# T1 sequence (whole entry): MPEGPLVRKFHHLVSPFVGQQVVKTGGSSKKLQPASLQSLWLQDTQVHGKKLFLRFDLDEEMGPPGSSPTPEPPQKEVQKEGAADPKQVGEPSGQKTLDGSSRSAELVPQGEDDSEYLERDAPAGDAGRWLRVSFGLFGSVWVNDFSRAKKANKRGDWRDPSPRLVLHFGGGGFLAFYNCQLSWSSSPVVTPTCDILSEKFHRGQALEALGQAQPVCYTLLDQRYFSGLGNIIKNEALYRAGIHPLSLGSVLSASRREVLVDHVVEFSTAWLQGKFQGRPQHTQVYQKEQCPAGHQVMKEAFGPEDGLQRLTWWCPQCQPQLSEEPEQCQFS
# Description: Inhibition of NEIL2 by quantifying inhibition of NEIL2-mediated cleavage and dissociation of quenched duplex DNA oligonucleotides, measured as fluorescence at 594 nm.
# [2] = molecular target: Endonuclease 8-like 1 (Homo sapiens) (UniProt Q96FI4);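 also: fluorescence at 594 nm from quenched duplex DNA oligonucleotides released by NEIL1 cleavage and strand separation, reported as reduction of this enzyme activity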
# Endonuclease 8-like 1 (Homo sapiens), sequence (Q96FI4 whole entry): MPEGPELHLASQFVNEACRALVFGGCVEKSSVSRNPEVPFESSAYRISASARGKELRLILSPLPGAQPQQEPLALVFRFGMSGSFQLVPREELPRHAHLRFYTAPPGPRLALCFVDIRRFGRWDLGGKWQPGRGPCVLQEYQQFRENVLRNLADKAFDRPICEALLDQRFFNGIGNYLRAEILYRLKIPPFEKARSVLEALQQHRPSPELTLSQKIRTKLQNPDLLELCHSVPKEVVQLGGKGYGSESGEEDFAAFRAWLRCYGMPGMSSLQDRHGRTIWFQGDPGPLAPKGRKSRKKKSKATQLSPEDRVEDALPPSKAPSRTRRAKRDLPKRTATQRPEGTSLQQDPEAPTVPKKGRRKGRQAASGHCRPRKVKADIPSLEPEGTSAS
# Description: Inhibition of NEIL1 by quantifying inhibition of NEIL1-mediated cleavage and dissociation of quenched duplex DNA oligonucleotides, measured as fluorescence at 594 nm.
# [3] = molecular target: Uracil-DNA glycosylase (Homo sapiens) (UniProt P13051);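 also: UNG excision on a quenched double-stranded DNA oligo probe, with APE1 added for strand incision and turnover, read as fluorescence at 594 nm as strands separate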
# Uracil-DNA glycosylase (Homo sapiens), sequence (P13051 whole entry): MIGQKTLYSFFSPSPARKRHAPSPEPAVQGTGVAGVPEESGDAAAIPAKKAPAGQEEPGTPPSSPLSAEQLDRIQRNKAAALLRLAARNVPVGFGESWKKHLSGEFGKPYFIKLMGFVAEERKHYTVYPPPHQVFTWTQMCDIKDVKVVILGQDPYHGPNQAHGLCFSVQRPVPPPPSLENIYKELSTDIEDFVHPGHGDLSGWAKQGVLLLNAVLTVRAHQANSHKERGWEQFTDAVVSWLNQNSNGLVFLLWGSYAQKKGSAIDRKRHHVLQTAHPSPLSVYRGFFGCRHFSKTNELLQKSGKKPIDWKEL
# Description: Inhibition of UNG by quantifying inhibition of UNG-mediated cleavage and dissociation of quenched duplex DNA oligonucleotides, measured as fluorescence at 594 nm. To generate a functional strand incision and increase turn-over this assay is coupled to APE1.
# [4] = molecular target: T2, Adenine DNA glycosylase (Homo sapiens) (UniProt Q9UIF7);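 also: human MUTYH activity read as 594 nm fluorescence from cleavage and release of a quenched DNA duplex, coupled with APE1 for strand incision, lower signal meaning inhibition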
# T2 sequence (whole entry): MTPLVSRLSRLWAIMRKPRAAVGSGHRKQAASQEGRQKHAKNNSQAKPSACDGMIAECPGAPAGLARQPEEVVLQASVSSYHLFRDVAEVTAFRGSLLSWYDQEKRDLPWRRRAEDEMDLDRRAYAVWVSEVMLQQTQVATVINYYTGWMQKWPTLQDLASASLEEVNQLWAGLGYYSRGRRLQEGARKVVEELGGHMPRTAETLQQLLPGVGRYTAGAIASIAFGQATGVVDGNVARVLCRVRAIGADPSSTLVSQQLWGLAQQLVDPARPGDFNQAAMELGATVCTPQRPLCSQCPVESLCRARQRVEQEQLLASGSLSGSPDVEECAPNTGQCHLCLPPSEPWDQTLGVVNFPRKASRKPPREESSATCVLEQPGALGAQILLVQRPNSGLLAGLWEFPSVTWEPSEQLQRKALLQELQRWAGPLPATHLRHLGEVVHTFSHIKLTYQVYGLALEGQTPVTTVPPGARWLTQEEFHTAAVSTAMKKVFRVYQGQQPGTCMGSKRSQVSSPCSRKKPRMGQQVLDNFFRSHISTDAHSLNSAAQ
# Description: Inhibition of MUTYH by quantifying inhibition of MUTYH-mediated cleavage and dissociation of quenched duplex DNA oligonucleotides, measured as fluorescence at 594 nm. To generate a functional strand incision and increase turn-over this assay is coupled to APE1.
# [5] = molecular target: T3, Single-strand selective monofunctional uracil DNA glycosylase (Homo sapiens) (UniProt Q53HV7);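 also: enzymatic SMUG1 assay coupled with APE1, reading fluorescence at 594 nm released when a quenched double-stranded DNA oligonucleotide substrate is cleaved and separated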
# T3 sequence (whole entry): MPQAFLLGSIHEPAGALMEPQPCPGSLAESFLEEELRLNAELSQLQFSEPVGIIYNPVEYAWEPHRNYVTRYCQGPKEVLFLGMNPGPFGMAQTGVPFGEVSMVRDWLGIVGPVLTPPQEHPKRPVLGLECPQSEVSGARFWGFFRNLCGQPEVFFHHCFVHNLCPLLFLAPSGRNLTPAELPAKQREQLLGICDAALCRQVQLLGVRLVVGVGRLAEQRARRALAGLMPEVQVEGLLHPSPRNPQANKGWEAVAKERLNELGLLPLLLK
# Description: Inhibition of SMUG1 by quantifying inhibition of SMUG1-mediated cleavage and dissociation of quenched duplex DNA oligonucleotides, measured as fluorescence at 594 nm. To generate a functional strand incision and increase turn-over this assay is coupled to APE1.
# [6] = molecular target: Methyl-CpG-binding domain protein 4 (Homo sapiens) (UniProt O95243);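 also: MBD4 activity read as fluorescence at 594 nm from cleavage and release of a quenched duplex DNA oligonucleotide, with APE1 coupled to incise the strand and raise turnover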
# Methyl-CpG-binding domain protein 4 (Homo sapiens), sequence (O95243 whole entry, the tested form may be a part): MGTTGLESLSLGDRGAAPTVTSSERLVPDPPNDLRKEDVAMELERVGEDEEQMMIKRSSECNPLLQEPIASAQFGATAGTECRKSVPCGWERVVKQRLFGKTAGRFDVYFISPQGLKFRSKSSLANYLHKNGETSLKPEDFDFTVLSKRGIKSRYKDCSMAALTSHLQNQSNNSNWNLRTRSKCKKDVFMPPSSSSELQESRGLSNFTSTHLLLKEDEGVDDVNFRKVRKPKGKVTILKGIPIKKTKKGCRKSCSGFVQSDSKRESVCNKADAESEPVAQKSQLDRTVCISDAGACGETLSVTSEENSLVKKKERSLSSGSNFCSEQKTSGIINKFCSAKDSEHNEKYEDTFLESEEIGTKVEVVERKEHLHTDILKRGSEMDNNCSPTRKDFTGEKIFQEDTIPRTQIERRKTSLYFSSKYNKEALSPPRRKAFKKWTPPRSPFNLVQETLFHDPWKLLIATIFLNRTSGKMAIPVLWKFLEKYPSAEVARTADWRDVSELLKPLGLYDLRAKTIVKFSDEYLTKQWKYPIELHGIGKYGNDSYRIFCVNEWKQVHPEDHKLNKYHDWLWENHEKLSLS
# Description: Inhibition of MBD4 by quantifying inhibition of MBD4-mediated cleavage and dissociation of quenched duplex DNA oligonucleotides, measured as fluorescence at 594 nm. To generate a functional strand incision and increase turn-over this assay is coupled to APE1.
# [7] = molecular target: N-glycosylase/DNA lyase (Homo sapiens) (UniProt O15527);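 also: OGG1 cleavage of a quenched duplex DNA oligonucleotide, coupled to APE1 for strand incision, read as fluorescence at 594 nm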
# N-glycosylase/DNA lyase (Homo sapiens), sequence (O15527 whole entry): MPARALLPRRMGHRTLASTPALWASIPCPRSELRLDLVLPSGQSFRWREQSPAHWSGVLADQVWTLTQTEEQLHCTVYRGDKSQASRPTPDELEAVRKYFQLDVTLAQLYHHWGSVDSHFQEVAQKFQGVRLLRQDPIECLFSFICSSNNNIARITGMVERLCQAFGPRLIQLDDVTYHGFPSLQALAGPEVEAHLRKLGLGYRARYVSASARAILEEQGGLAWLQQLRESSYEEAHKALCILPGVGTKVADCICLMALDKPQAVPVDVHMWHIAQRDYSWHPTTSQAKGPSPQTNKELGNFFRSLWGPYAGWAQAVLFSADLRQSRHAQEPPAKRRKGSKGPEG
# Description: Inhibition of OGG1 by quantifying inhibition of OGG1-mediated cleavage and dissociation of quenched duplex DNA oligonucleotides, measured as fluorescence at 594 nm. To generate a functional strand incision and increase turn-over this assay is coupled to APE1.
# [8] = molecular target: G/T mismatch-specific thymine DNA glycosylase (Homo sapiens) (UniProt Q13569);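 also: human TDG cleavage of quenched duplex DNA oligonucleotides coupled to APE1, strand release read as fluorescence at 594 nm, inhibition of TDG activity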
# G/T mismatch-specific thymine DNA glycosylase (Homo sapiens), sequence (Q13569 whole entry): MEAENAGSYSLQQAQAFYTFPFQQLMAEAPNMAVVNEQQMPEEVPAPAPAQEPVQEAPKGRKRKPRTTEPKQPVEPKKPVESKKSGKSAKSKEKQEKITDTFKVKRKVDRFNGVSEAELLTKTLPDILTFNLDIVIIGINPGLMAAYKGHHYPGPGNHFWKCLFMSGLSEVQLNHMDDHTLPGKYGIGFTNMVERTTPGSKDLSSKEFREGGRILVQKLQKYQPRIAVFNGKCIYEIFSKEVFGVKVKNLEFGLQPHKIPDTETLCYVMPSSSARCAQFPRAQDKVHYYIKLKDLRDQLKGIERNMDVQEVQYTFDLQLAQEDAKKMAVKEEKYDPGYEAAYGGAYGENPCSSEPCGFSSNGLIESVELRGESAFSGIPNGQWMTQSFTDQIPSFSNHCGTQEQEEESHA
# Description: Inhibition of TDG by quantifying inhibition of TDG-mediated cleavage and dissociation of quenched duplex DNA oligonucleotides, measured as fluorescence at 594 nm. To generate a functional strand incision and increase turn-over this assay is coupled to APE1.
# [9] = molecular target: T4, Endonuclease III-like protein 1 (Homo sapiens) (UniProt P78549);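 also: enzyme assay tracking NTHL1 cutting and release of a quenched double-stranded DNA oligo substrate, read as fluorescence at 594 nm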
# T4 sequence (whole entry): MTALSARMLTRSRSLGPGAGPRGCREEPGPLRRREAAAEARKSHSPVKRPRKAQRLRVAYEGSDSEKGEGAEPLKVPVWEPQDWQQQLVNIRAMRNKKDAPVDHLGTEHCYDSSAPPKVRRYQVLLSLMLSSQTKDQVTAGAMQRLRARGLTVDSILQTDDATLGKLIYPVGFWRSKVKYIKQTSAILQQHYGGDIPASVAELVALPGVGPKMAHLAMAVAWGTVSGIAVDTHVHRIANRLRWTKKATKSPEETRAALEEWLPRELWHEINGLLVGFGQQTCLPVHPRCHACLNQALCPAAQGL
# Description: Inhibition of NTHL1 by quantifying inhibition of NTHL1-mediated cleavage and dissociation of quenched duplex DNA oligonucleotides, measured as fluorescence at 594 nm.
# [10] = molecular target: DNA-3-methyladenine glycosylase (Homo sapiens) (UniProt P29372);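 also: enzyme assay where MPG cuts a quenched duplex DNA oligonucleotide probe, paired with APE1 for strand incision and turnover, read as fluorescence at 594 nm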
# DNA-3-methyladenine glycosylase (Homo sapiens), sequence (P29372 whole entry): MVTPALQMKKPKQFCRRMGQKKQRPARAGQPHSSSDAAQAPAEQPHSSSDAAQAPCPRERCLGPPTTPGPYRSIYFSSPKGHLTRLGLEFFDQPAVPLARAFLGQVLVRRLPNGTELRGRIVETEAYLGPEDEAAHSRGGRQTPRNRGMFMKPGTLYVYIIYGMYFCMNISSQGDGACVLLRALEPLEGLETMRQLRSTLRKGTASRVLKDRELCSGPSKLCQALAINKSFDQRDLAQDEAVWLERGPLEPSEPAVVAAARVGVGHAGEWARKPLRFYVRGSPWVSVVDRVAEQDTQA
# Description: Inhibition of MPG by quantifying inhibition of MPG-mediated cleavage and dissociation of quenched duplex DNA oligonucleotides, measured as fluorescence at 594 nm. To generate a functional strand incision and increase turn-over this assay is coupled to APE1.
SMILES,inhibition ([1]; Compound Concentration 10.0 uM) [%],inhibition ([2]; Compound Concentration 10.0 uM) [%],inhibition ([3]; Compound Concentration 10.0 uM) [%],inhibition ([4]; Compound Concentration 10.0 uM) [%],inhibition ([5]; Compound Concentration 10.0 uM) [%],inhibition ([6]; Compound Concentration 10.0 uM) [%],inhibition ([7]; Compound Concentration 10.0 uM) [%],inhibition ([8]; Compound Concentration 10.0 uM) [%],inhibition ([9]; Compound Concentration 10.0 uM) [%],inhibition ([10]; Compound Concentration 10.0 uM) [%],inhibition ([1]; Compound Concentration 1.0 uM) [%],inhibition ([2]; Compound Concentration 1.0 uM) [%],inhibition ([3]; Compound Concentration 1.0 uM) [%],inhibition ([4]; Compound Concentration 1.0 uM) [%],inhibition ([5]; Compound Concentration 1.0 uM) [%],inhibition ([6]; Compound Concentration 1.0 uM) [%],inhibition ([7]; Compound Concentration 1.0 uM) [%],inhibition ([8]; Compound Concentration 1.0 uM) [%],inhibition ([9]; Compound Concentration 1.0 uM) [%],inhibition ([10]; Compound Concentration 1.0 uM) [%]
CCCn1c(=O)c2nc(C34CC5CC(CC3C5)C4)[nH]c2n(CCC)c1=O,12.2,5.88,-9.84,6.8,5,16.5,-1.3,14.1,-8.34,-7.5,,,,,,,,,,
CCCCCCCCc1ccc(CC[C@](N)(CO)COP(=O)(O)O)cc1,6.75,9.14,-7.46,6.04,0.742,-2.75,0.481,7.26,-3.94,7.62,,,,,,,,,,
CCOC(=O)N1CCC(c2cc(O)n3nc(C)c(-c4ccc(F)cc4)c3n2)CC1,2.71,5.34,-0.428,75.7,6.03,40.6,-3.67,48.9,11.3,38.1,,,,,,,,,,
CC(=O)Nc1cccc(-n2c(=O)n(C3CC3)c(=O)c3c(Nc4ccc(I)cc4F)n(C)c(=O)c(C)c32)c1,,,,,,,,,,,1.85,2.25,7.39,15.8,18.1,22.2,8.25,45.9,-1.31,11.7
CCOC(=O)c1ccc(N2C(=O)C(O)=C(C(=O)c3ccc(OC)cc3)C2c2ccc(F)cc2)cc1 (stereo not given),0.414,11.9,1.33,62.9,1.4,55.1,-5.97,46.7,21.2,15.7,,,,,,,,,,
COc1cc(Br)c(S(=O)(=O)Nc2ccc(C(F)(F)F)c(O[C@@H]3CCN(C)C3)c2)cc1OC,-4.68,-6.66,-6.21,-3.82,-0.0706,-1.76,-7.69,-0.305,13.8,-9.93,,,,,,,,,,
CC(C)c1noc(N2CCC(COc3ccc(-c4ccc(S(C)(=O)=O)cc4)nc3)CC2)n1,5.01,10.9,-6.54,18.2,-6.43,-9.32,3.18,3,-6.14,-8.23,,,,,,,,,,
COc1cc([N+](=O)[O-])ccc1NC(=O)c1ccccc1O,8.06,3.86,-6.06,4.12,9.42,0.275,-1.87,9.09,-0.258,-4.2,,,,,,,,,,
COC(=O)c1cc2c(cn1)[nH]c1ccccc12,22.6,5.05,-4.88,41.5,2.02,8.08,0.163,11,2.22,11.4,,,,,,,,,,
c1ccc2nc(N3CCNCC3)ccc2c1,7.8,8.31,1.1,11.1,2.02,-0.572,-7.23,12.3,13.8,-3.87,,,,,,,,,,
CCOC(=O)N[C@@H]1CC[C@@H]2[C@@H](C1)C[C@H]1C(=O)O[C@H](C)[C@H]1[C@H]2/C=C/c1ccc(-c2cccc(F)c2)cn1,-1.73,5.28,-5.33,1.43,10.5,-1.19,8.48,13.4,2.66,-7.15,,,,,,,,,,
